Reference: PubChem BioAssay (NCI)
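Following 48 hours of exposure in 96-well plates, responses at five concentrations were used to interpolate endpoints linearly. GI50 = concentration required for 50% inhibition of growth. TGI: concentration producing complete growth inhibition.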

Columns and labels:
Test in all cases: inhibition of tumour cell growth, NCI panel, 48 h
NCI-H226 lung = system: NCI-H226 lung
RPMI-8226 leukemia = system: RPMI-8226 leukemia
OVCAR-8 ovarian = system: OVCAR-8 ovarian
MALME-3M melanoma = system: MALME-3M melanoma
UACC-62 melanoma = system: UACC-62 melanoma
HCT-116 colon = system: HCT-116 colon
RXF 393 renal = system: RXF 393 renal
DU-145 prostate = system: DU-145 prostate
SNB-19 CNS = system: SNB-19 CNS
SK-OV-3 ovarian = system: SK-OV-3 ovarian

SMILES	GI50 (NCI-H226 lung) [µM]	TGI (NCI-H226 lung) [µM]	GI50 (RPMI-8226 leukemia) [µM]	TGI (RPMI-8226 leukemia) [µM]	GI50 (OVCAR-8 ovarian) [µM]	TGI (OVCAR-8 ovarian) [µM]	GI50 (MALME-3M melanoma) [µM]	TGI (MALME-3M melanoma) [µM]	GI50 (UACC-62 melanoma) [µM]	TGI (UACC-62 melanoma) [µM]	GI50 (HCT-116 colon) [µM]	TGI (HCT-116 colon) [µM]	GI50 (RXF 393 renal) [µM]	TGI (RXF 393 renal) [µM]	GI50 (DU-145 prostate) [µM]	TGI (DU-145 prostate) [µM]	GI50 (SNB-19 CNS) [µM]	TGI (SNB-19 CNS) [µM]	GI50 (SK-OV-3 ovarian) [µM]	TGI (SK-OV-3 ovarian) [µM]
CCn1c(-c2nonc2N)nc2cncc(C(=O)N3CCNCC3)c21	> 25	> 25	> 25	> 25	> 25	> 25	> 25	> 25	> 25	> 25	> 25	> 25	> 25	> 25	> 25	> 25	> 25	> 25	> 25	> 25
CC12CCC(=O)C=C1CCC1C2CCC2(C)C(C(=O)Cn3cnc4c(=S)nc[nH]c43)CCC12 (stereo not given)		> 100		> 100		> 100		> 100		> 100		> 100		44		66.4		73.8		> 100
O=C(O)CSSCC(=O)O		> 100		> 100		> 100		> 100		> 100		> 100		> 100		> 100		> 100		> 100
CCN(CC)c1ccc(/C=C/c2cc(C)c3ccccc3n2)cc1	11.9	91.3	3.11	11.3	4.64	55.8	3.39	22.8	3.31	22.6	4.06	16.4	3.43	9.44	3.43	15.3	5.92	> 100	3.41	17.8
COc1cc2c(cc1OC)-c1ccc3cc4c(cc3c1N(CCN1CCCC1)C2)OCO4	0.876	3.16	0.224	0.723	0.404	2.06	2.05	14.2	1.07	3	0.477	1.76	0.794	2.72	0.376	2.5	0.543	1.85	0.526	5.51
CC1=CC(=O)c2c(O)cccc2C1=O		24.6		1.83		3.2		2.19		3.4		3.11		3.07		3.02		25		27.2
CCCN1C(=O)/C(=c2\sc3n(c2=O)C2C(NN=3)N(CC)C(=O)N2CC)c2ccccc21 (stereo not given)	1.45	> 33	0.427	6.48	0.688	12.3	0.612	25.1	0.489	17.4	0.404	12.4	0.277	3.23	0.421	11	0.765	23.8	0.737	14.9
CC1Oc2cc3c(-c4c(O)cc(O)c5c(O)c6c(cc45)OC(C)C(C)C6=O)c(O)cc(O)c3c(O)c2C(=O)C1C (stereo not given)		0.89		0.469		1.4		1.13		1.34		0.289		0.207		10.7		1.16		1.56
O=C(O)CS(=O)(=O)C(c1ccccc1)c1ccccc1		> 100		> 100		> 100		> 100		> 100		> 100		> 100		> 100		> 100		> 100
Cc1cc(N2CCCCC2)nc(N(CCNc2ccnc3cc(Cl)ccc23)Cc2ccco2)n1	1.69	3.96	2	4.55	1.85	3.68	1.98	3.65	1.74	3.34	1.41	2.84	1.56	3.32	2.87	9.2	3.26	12	2.15	4.9
CCCN(Cc1ccc(F)cc1)c1ccc(CO)c(Cl)c1	0.0365	0.144	1.91	14	11.5	25.8	14.1	28.6	0.167	0.907	0.138	3.86	4.12	16.8	13.3	26.5	12.7	26.8	6.31	19
OCC1OC(n2ccc3c2ncn2ncnc32)C(O)C1O (stereo not given)	1.59	> 100	6.62	> 100	0.392	5.68	29	> 100	8.42	> 100	1.38	> 100	0.989	13.8	0.379	> 100	4.7	> 100	2.08	> 49.2
